Measured values as given in patent publication US20240058328A1, “MASITINIB FOR THE TREATMENT OF ALZHEIMER'S DISEASE” (AB SCIENCE, priority 2020, published 2024).

Test system: patients with Alzheimer's disease
Experiment: Phase 3 study AB09004: change from baseline in ADCS-ADL score
Assay type: in vivo, human
Design: key to δLSM (ADCS-ADL): LSM difference in ADCS-ADL change; positive = improvement
Conditions: 4.5 mg/kg/day; for ΔLSM (ADCS-ADL): vs placebo, week 24; for δLSM (ADCS-ADL): week 24 from baseline
Experimental: An international, multicenter, randomized, double-blind, placebo-controlled phase 3 study was conducted with the objective to evaluate oral masitinib at a dose of 4.5 mg/kg/day as a treatment for Alzheimer's disease.
Eligible patients, aged at least 50 years, were diagnosed with dementia of Alzheimer's type according to Diagnostic and Statistical Manual of Mental Disorders (DSM)-IV criteria, and probable Alzheimer's disease according to NINCDS-ADRDA (National Institute of Neurological and Communicative Diseases and Stroke/Alzheimer's Disease and Related Disorders Association) criteria. […] Patients with any other cause of dementia not due to Alzheimer's disease were ineligible for the study.
Eligible patients were treated during 24 weeks with masitinib at a dose of 4.5 mg/kg/day (mg per kilo body weight per day) or with placebo. Treatment was administered as add-on therapy in patients who had been treated for a minimum of 6 months with a stable dose of cholinesterase inhibitors (donepezil, rivastigmine or galantamine) and/or memantine, with no changes foreseen in therapy throughout the study.
Primary analysis was based on the co-primary endpoints of: • Change from baseline in Alzheimer's Disease Cooperative Study Activities of Daily Living (ADCS-ADL) score. The ADCS-ADL assesses the competence of patients with Alzheimer's disease in basic and instrumental activities of daily living (ADLs). • Change from baseline in Alzheimer's Disease Assessment Scale-Cognitive Subscale (ADAS-Cog). The ADAS-Cog assesses cognition and memory.
Treatment effect (masitinib versus placebo) was assessed based on absolute change from baseline to week 24 by using an analysis of covariance model (ANCOVA linear model) with the following factors: treatment, baseline value, and stratification criteria of baseline MMSE score, age, ADCS-ADL total score, and ADAS-Cog total score.
For ADCS-ADL, the global score (i.e., the sum of 23 items rated by the caregiver) was used with a range from 0 to 78, wherein 78 implies full functioning with no impairment. Thus, a higher score signifies greater functional ability, while a lower score signifies greater (worse) impairment. Results are expressed as a least-squares means difference (δLSM) of absolute change in ADCS-ADL score from baseline; that is to say, the change over time in the ADCS-ADL score, or in other words the difference between the ADCS-ADL score at baseline (before treatment initiation) and the ADCS-ADL score after treatment with masitinib or with placebo. An increase in ADCS-ADL score with respect to baseline (i.e., a positive δLSM) indicates an improvement in the patient and therefore disease stability, whereas a decrease in ADCS-ADL score with respect to baseline (i.e., negative δLSM) indicates a worsening in the patient and therefore disease progression. Treatment-effect is reported as the difference between treatment-arms (ΔLSM) (calculated as δLSM[masitinib] minus δLSM[placebo]), with a positive value indicating a beneficial effect of treatment with masitinib as compared to treatment with placebo. In a scenario where both treatment-arms show worsening in activities of daily living (i.e., a negative δLSM), then a positive ΔLSM indicates a beneficial treatment effect for masitinib, i.e., the rate of decline in masitinib treated patients is slower than that of patients from the placebo-arm.
The comparison was carried out using the following information: • δLSM: least-squares means difference of absolute change in endpoint score at week 24 from baseline, either according to ADAS-Cog assessment or to ADCS-ADL assessment. • ΔLSM: Difference between treatment-arms (treatment-effect) calculated as δLSM[masitinib] minus δLSM[placebo]. • Δsub/Δoverall: Ratio of subpopulation's placebo-controlled treatment-effect (ΔLSM at W24 for masitinib 4.5 mg/kg/d parallel arm) versus overall study population's placebo-controlled treatment-effect (ΔLSM at W24 for masitinib 4.5 mg/kg/d parallel arm). […]

[1] = Baseline ADCS-ADL >47 (Table 11)

SMILES: Cc1ccc(NC(=O)c2ccc(CN3CCN(C)CC3)cc2)cc1Nc1nc(-c2cccnc2)cs1 [masitinib, 4-(4-methylpiperazin-1-ylmethyl)-N-[4-methyl-3-(4-pyridin-3ylthiazol-2-ylamino)phenyl]benzamide]
- ΔLSM (ADCS-ADL) (Baseline ADAS-Cog >35): −0.788 points
- ΔLSM (ADCS-ADL) (Baseline ADCS-ADL <32): −0.9123 points
- δLSM (ADCS-ADL) (Baseline ADCS-ADL <32): 0.8656
- ΔLSM (ADCS-ADL) (Baseline ADCS-ADL <35): 0.2942 points
- δLSM (ADCS-ADL) (Baseline ADCS-ADL <35): 0.9816
- ΔLSM (ADCS-ADL) (Baseline ADCS-ADL <38): −0.2109 points
- δLSM (ADCS-ADL) (Baseline ADCS-ADL <38): 1.9901
- ΔLSM (ADCS-ADL) (Baseline ADCS-ADL <41): 1.0592 points
- δLSM (ADCS-ADL) (Baseline ADCS-ADL <41): 3.2426
- ΔLSM (ADCS-ADL) (Baseline ADCS-ADL <47): 0.9542 points
- δLSM (ADCS-ADL) (Baseline ADCS-ADL <47): 2.0776
- ΔLSM (ADCS-ADL) (Baseline ADCS-ADL <50): +0.3062 points
- ΔLSM (ADCS-ADL) (Baseline ADCS-ADL <50, listed as M4.5, 4.5 mg/kg/day): 0.3062 points
- δLSM (ADCS-ADL) (Baseline ADCS-ADL <50): 1.5300
- ΔLSM (ADCS-ADL) (Baseline ADCS-ADL >39): +2.0733 points
- ΔLSM (ADCS-ADL) (Baseline ADCS-ADL >39, listed as M4.5, 4.5 mg/kg/day): 2.0733 points
- δLSM (ADCS-ADL) (Baseline ADCS-ADL >39): 0.6655
- ΔLSM (ADCS-ADL) [1]: 2.1676 points
- δLSM (ADCS-ADL) [1]: 1.0869
- ΔLSM (ADCS-ADL) (Baseline ADCS-ADL >55): +3.1871 points
- ΔLSM (ADCS-ADL) (Baseline ADCS-ADL >55, listed as M4.5, 4.5 mg/kg/day): 3.1871 points
- δLSM (ADCS-ADL) (Baseline ADCS-ADL >55): 0.8306
- ΔLSM (ADCS-ADL) (Baseline ADCS-ADL ≤39): +0.7132 points
- ΔLSM (ADCS-ADL) (Baseline ADCS-ADL ≤39, listed as M4.5, 4.5 mg/kg/day): 0.7132 points
- δLSM (ADCS-ADL) (Baseline ADCS-ADL ≤39): 2.8513
- ΔLSM (ADCS-ADL) (Baseline ADCS-ADL ≤55): +0.4577 points
- ΔLSM (ADCS-ADL) (Baseline ADCS-ADL ≤55, listed as M4.5, 4.5 mg/kg/day): 0.4577 points
- δLSM (ADCS-ADL) (Baseline ADCS-ADL ≤55): 1.3484
- ΔLSM (ADCS-ADL) (Baseline ADCS-ADL ≥32): 1.9799 points
- δLSM (ADCS-ADL) (Baseline ADCS-ADL ≥32): 0.9536
- ΔLSM (ADCS-ADL) (Baseline ADCS-ADL ≥35): 2.0209 points
- δLSM (ADCS-ADL) (Baseline ADCS-ADL ≥35): 0.9909
- ΔLSM (ADCS-ADL) (Baseline ADCS-ADL ≥38): +2.3285 points
- ΔLSM (ADCS-ADL) (Baseline ADCS-ADL ≥38, listed as M4.5, 4.5 mg/kg/day): 2.3285 points
- δLSM (ADCS-ADL) (Baseline ADCS-ADL ≥38): 1.0071
- ΔLSM (ADCS-ADL) (Baseline ADCS-ADL ≥41): 2.0192 points
- δLSM (ADCS-ADL) (Baseline ADCS-ADL ≥41): 0.8077
- ΔLSM (ADCS-ADL) (Baseline ADCS-ADL ≥47): 2.1676 points
- δLSM (ADCS-ADL) (Baseline ADCS-ADL ≥47): 1.0869
- ΔLSM (ADCS-ADL) (Baseline ADCS-ADL ≥50): +3.2315 points
- ΔLSM (ADCS-ADL) (Baseline ADCS-ADL ≥50, listed as M4.5, 4.5 mg/kg/day): 3.2315 points
- δLSM (ADCS-ADL) (Baseline ADCS-ADL ≥50): 0.7638
- ΔLSM (ADCS-ADL) (MMSE <13): −9.2849 points
- δLSM (ADCS-ADL) (MMSE <13): −10.9758
- ΔLSM (ADCS-ADL) (MMSE <14): −3.5751 points
- δLSM (ADCS-ADL) (MMSE <14): −4.6507
- ΔLSM (ADCS-ADL) (MMSE <15): −0.5657 points
- δLSM (ADCS-ADL) (MMSE <15): −3.1413
- ΔLSM (ADCS-ADL) (MMSE <16): −0.6926 points
- δLSM (ADCS-ADL) (MMSE <16): −2.3199
- ΔLSM (ADCS-ADL) (MMSE <17): 0.5605 points
- δLSM (ADCS-ADL) (MMSE <17): −1.0314
- ΔLSM (ADCS-ADL) (MMSE [12-20]): +1.3770 points
- ΔLSM (ADCS-ADL) (MMSE [12-20], listed as M4.5, 4.5 mg/kg/day): 1.3770 points
